The source of these data is patent US20220409578A1, “FUNCTIONALIZED 1,3-BENZENE DIOLS AND THEIR METHOD OF USE FOR THE TREATMENT OF RADIATION DERMATITIS AND OTHER SKIN DISORDERS” (KANNALIFE SCIENCES, INC., priority 2019, published 2022).

The subject of one data set is CXCL5. Nature of the data set: CXCL5 chemokine secretion by UV-B irradiated NHEKs (ELISA). It counts as cell-based, human. As to the method: Normal human epidermal keratinocytes cultures were utilized to measure the release of proinflammatory cytokines and chemokines. Primary epidermal keratinocytes from neonatal donors were used from human origin and purchased from Thermo-Fisher (Cat No. A13401). […] Cells were cultured until the second passage and then acclimated for 48 hours more before UV-B irradiation. Dosing procedures and cell groups were identified using appropriate cell culture 24-well plates. The cell culture incubator was set at 5% v/v CO2 with temperature and humidity maintained at 36-38° C. and 40-70%, respectively. The test and control substances were administered to HKGS-depleted medium in triplicates. A fixed 5 μL/well from 100× stock dose volume was administered to 500 μL of media to each cell culture well on Day 3 and pre-incubated for 6 hours and then post-UVB incubated for 18 hours. […] CXCL5 levels were quantified by enzyme-linked immunosorbent assay (ELISA) after UV-B irradiation and incubation with test and control materials. CXCL5 levels were assessed from cell culture media supernatants using R&D Systems Human CXCL5/ENA-78 DuoSet ELISA kit (Cat. No. DY254-05) according to the manufacture's specifications. Absorbance was measured at 450 nm using plate reader and cytokine levels were calculated from a standard curve.
(An ELISA detects its analyte on a solid surface through an enzyme-linked reagent.)

For another data set, the system named is IL-1β. Kind of data set: IL-1β release from UV-B irradiated human epidermal keratinocytes (ELISA). It counts as cell-based. To be noted: Keratinocyte, light or radiation study; UV-B 25 mJ/cm^2, human epidermal keratinocytes; read-out: IC50 of interleukin-1β inhibition. As to the method: Normal human epidermal keratinocytes cultures were utilized to measure the release of proinflammatory cytokines and chemokines. Primary epidermal keratinocytes from neonatal donors were used from human origin and purchased from Thermo-Fisher (Cat No. A13401). […] Cells were cultured until the second passage and then acclimated for 48 hours more before UV-B irradiation. Dosing procedures and cell groups were identified using appropriate cell culture 24-well plates. The cell culture incubator was set at 5% v/v CO2 with temperature and humidity maintained at 36-38° C. and 40-70%, respectively. The test and control substances were administered to HKGS-depleted medium in triplicates. A fixed 5 μL/well from 100× stock dose volume was administered to 500 μL of media to each cell culture well on Day 3 and pre-incubated for 6 hours and then post-UVB incubated for 18 hours. […] Media supernatants were harvested and analyzed for TNFα and IL-1β levels by ELISA method. Cytokine levels were assessed from cell culture media supernatants using BD Biosciences OptEIA™ Human TNFα (Cat. No. 555212) and IL-1β (Cat. No. 557953) and ELISA set kit and Reagent Set B (Cat. No. 550534) according the manufacture's specifications. Absorbance was measured at 450 nm using a plate reader and calculated cytokine levels were determined from a standard curve.

Data set [1] relates to human 3D cornea-like EPIOCULAR
Kind of data set: Eye irritation, EPIOCULAR reconstructed cornea-like model, OECD 492 (MTT). The format is cell-based. To be noted: human, 30 min. The protocol:
Ocular irritancy: The purpose of this study was to evaluate any potential ocular irritation activity of KLS-13022 formulations compared to vehicle-only treated tissues in vitro on human 3D cornea-like EPIOCULAR by topical application according to OECD 492 protocol. Test formulations of KLS-13022 up to 3% w/v in 60:40 ethanol:water vehicle were prepared fresh before use. EPIOCULAR tissues were acclimated before treatments for 24 hours and later treated topically for 30 minutes with KLS-13022 (0.01, 0.1, 0.3 1, 3% w/v). Methyl acetate was used as positive eye irritant control. Tissue viability levels were measured by MTT reduction assay method after material treatments. The levels of tissue viability after each material treatment was compared to vehicle control group to determine any potential ocular irritation activity.
Average levels of tissue viability were calculated for each treatment group. According to OECD 492 protocol, predicted positive eye irritation activities were determined when obtaining <60% tissue viability. […] Primary cornea-like inserts were used from human origin and purchased from MatTek (Ashland, Mass.). […] Tissues were cultured with standard conditions (37° C., 95% v/v air, 5% v/v CO2) and acclimated for 18+3 hours before dosing procedures.

The next data set relates to IL-8. Nature of the data set: IL-8 release, nickel-induced allergy in human dermal microvascular endothelial cells (ELISA). The format is cell-based. To be noted: co-treatment with NiSO4, HDMECs. As to the method: Dermal Microvascular endothelial cells of human origin were cultured in vitro using standard conditions (37° C., 95% v/v air, 5% v/v CO2). Human cells were selected as relevant to cell types within skin tissues for this development program. Cell culture methods are commonly used in non-clinical studies conducted on pharmaceutical products. […] Cells were cultured until the third and fourth passage and then acclimated for 24 hours before Nickel induction and dosing procedures. Cell treatment groups were identified using appropriate 96-well plates. The test and control articles were administered to medium containing 1 mM NiSO4 in triplicates. The negative control group received vehicle-only (0.1% v/v final) dose. A fixed 0.1 μL/well from 1000× stock dose volume was administered to 100 μL of media to each cell culture well on Day 2 and incubated for 6 hours at 37 degrees. These cell cultures were also utilized to determine the concentrations of test agent that were non-toxic after 24 hours of incubation.
Assay for Interleukin-8: Test material was applied in vitro for the ability to inhibit pro-inflammatory (IL-8) cytokine secretion by cultured HDMECs co-treated with Nickel (NiSO4). Clobetasol propionate was tested as positive control material for anti-inflammatory activity. The pro-inflammatory cytokine (IL-8) was quantified by enzyme-linked immunosorbent assay (ELISA) after inflammatory induction and incubation with test and control materials. Interleukin-8 levels in cell culture medium are markers of inflammation signaling by endothelial cells present in skin microvascular tissue in response to irritation. Interleukin-8 (IL-8) levels were assessed using BD Biosciences OptEIA™ Human IL-8 ELISA Set kit (Cat. No. 555244) and Reagent Set B (Cat. No. 550534) according to the manufacture's specifications. Absorbance was measured at 450 nm using plate reader and interleukin-8 levels were calculated from a standard curve.

Data set [2] relates to human 3D skin-like EPIDERM. To be noted: 1 h.

One may read the IC50 as the point on the concentration scale where inhibition reaches its midpoint. Take `C=C(C)[C@@H]1CCC(C)=C[C@H]1c1c(O)cc(CC2CN(C(=O)OCC)C2)cc1O` [KLS-13022, ethyl 3-(3,5-dihydroxy-4-((1R,6R)-3-methyl-6-(prop-1-en-2-yl)cyclohex-2-enyl)benzyl)azetidine-1-carboxylate]: the CXCL5 inhibition in the data set with CXCL5 is listed as 100%. For the same compound, the concentration for half-maximal inhibition (IC50) is 50 nM with CXCL5 (Homo sapiens, NHEK, light or radiation study, read-out: IC50 of CXCL5 inhibition); 380 nM in the data set with IL-1β; 300 nM in the data set on IL-8 (Homo sapiens, Endothelial cell, read-out: IC50 of IL-8 inhibition). Also, the tissue viability in data set [1] was at least 60%; in data set [2] it was at least 50%. In the data set with IL-8, the “maximum IL-8 inhibition” value is 78%.
